This series is described as follows: activity coefficient (dimensionless); of the first substance listed, at infinite dilution; xn = mol fraction of the nth substance listed. The conditions noted are these: 101.33 kPa, Liquid, Chromatography, x1 = 0.

± gives the expanded uncertainty stated by the source.

Among the data in the NIST ThermoML archive (doi:10.1021/acs.jced.9b00170) are activity coefficient values, retold here.

For the compound `CC1CCCCC1` [methylcyclohexane] + CCCC[N+]1(C)CCCC1.O=S(=O)([N-]S(=O)(=O)C(F)(F)F)C(F)(F)F, the activity coefficient was determined as 8.53 ± 0.39 (313.1 K), 7.52 ± 0.34 (333.1 K) and 6.76 ± 0.31 (353.1 K).
In the same order, the values of `CCCCCCC` [heptane] + CCCC[n+]1ccc(C)cc1.F[B-](F)(F)F are 84.8 ± 4, 73.7 ± 3.5 and 67.4 ± 3.1.
The matching figures for `CCCCCCCC` [octane] + CCCC[N+]1(C)CCCC1.O=S(=O)([N-]S(=O)(=O)C(F)(F)F)C(F)(F)F: 23.7 ± 1.1, 20.8 ± 0.96 and 19.1 ± 0.88.
The matching figures for `Cc1ccccc1C` [1,2-dimethylbenzene] + CCCC[N+]1(C)CCCC1.O=S(=O)([N-]S(=O)(=O)C(F)(F)F)C(F)(F)F: 1.57 ± 0.06, 1.59 ± 0.06 and 1.61 ± 0.06.
`CC1CCCC1` [methylcyclopentane] + CCCC[N+]1(C)CCCC1.O=S(=O)([N-]S(=O)(=O)C(F)(F)F)C(F)(F)F: the activity coefficient by setting is: (313.1 K) 10.3 ± 0.47; (333.1 K) 9.08 ± 0.42; (353.1 K) 8.11 ± 0.37.
The matching figures for `CCCCCCCCC` [nonane] + CCCC[N+]1(C)CCCC1.O=S(=O)([N-]S(=O)(=O)C(F)(F)F)C(F)(F)F: 33.1 ± 1.5, 29.2 ± 1.4 and 26.8 ± 1.2.
In the same order, the values of `Cc1ccccc1` [toluene] + CCCC[n+]1ccc(C)cc1.F[B-](F)(F)F are 2.66 ± 0.12, 2.69 ± 0.12 and 2.73 ± 0.12.
Regarding `CC1CCCCC1` [methylcyclohexane] + CCCCn1cc[n+](C)c1.F[B-](F)(F)F, the activity coefficient reads like this: (313.1 K) 45.7 ± 2.1; (333.1 K) 40.5 ± 1.9; (353.1 K) 35.5 ± 1.6.
Consider `CCCCCCCC` [octane] + CCCCn1cc[n+](C)c1.F[B-](F)(F)F, for which the activity coefficient is 92.2 ± 4.3 (313.1 K), 83.7 ± 3.9 (333.1 K) and 72.4 ± 3.4 (353.1 K).
The matching figures for `Cc1ccccc1` [toluene] + CCCC[N+]1(C)CCCC1.O=S(=O)([N-]S(=O)(=O)C(F)(F)F)C(F)(F)F: 1.22 ± 0.04, 1.29 ± 0.04 and 1.37 ± 0.05.
`Cc1ccccc1C` [1,2-dimethylbenzene] + CCCCn1cc[n+](C)c1.F[B-](F)(F)F: the activity coefficient is, setting by setting: (313.1 K) 4.55 ± 0.21; (333.1 K) 4.51 ± 0.21; (353.1 K) 4.49 ± 0.2.
In the same order, the values of `CCCCCC` [hexane] + CCCC[n+]1ccc(C)cc1.F[B-](F)(F)F are 59.8 ± 2.8, 52.4 ± 2.4 and 49 ± 2.3.
The matching figures for `Cc1ccccc1` [toluene] + CCCCn1cc[n+](C)c1.F[B-](F)(F)F: 3.28 ± 0.15, 3.33 ± 0.15 and 3.4 ± 0.15.
Take `CCCCCCCCCC` [decane] + CCCCn1cc[n+](C)c1.F[B-](F)(F)F: the activity coefficient was 177 ± 8.4 (313.1 K), 144 ± 6.8 (333.1 K) and 125 ± 5.9 (353.1 K).
The matching figures for `CCCCCCCCCC` [decane] + CCCC[n+]1ccc(C)cc1.F[B-](F)(F)F: 306 ± 14, 234 ± 11 and 223 ± 11.
The matching figures for `CCCCCC` [hexane] + CCCC[N+]1(C)CCCC1.O=S(=O)([N-]S(=O)(=O)C(F)(F)F)C(F)(F)F: 12.6 ± 0.58, 10.2 ± 0.47 and 9.5 ± 0.44.
Turning to `CCCCCCC` [heptane] + CCCCn1cc[n+](C)c1.F[B-](F)(F)F, the activity coefficient reads like this: (313.1 K) 78.7 ± 3.7; (333.1 K) 69 ± 3.2; (353.1 K) 62.2 ± 2.9.
As for `CCCCCCC` [heptane] + CCCC[N+]1(C)CCCC1.O=S(=O)([N-]S(=O)(=O)C(F)(F)F)C(F)(F)F, the activity coefficient came to 17 ± 0.79 (313.1 K), 15.3 ± 0.71 (333.1 K) and 13.6 ± 0.62 (353.1 K).
In the same order, the values of `Cc1ccccc1C` [1,2-dimethylbenzene] + CCCC[n+]1ccc(C)cc1.F[B-](F)(F)F are 4.48 ± 0.2, 4.55 ± 0.21 and 4.59 ± 0.21.
In the same order, the values of `CC1CCCC1` [methylcyclopentane] + CCCCn1cc[n+](C)c1.F[B-](F)(F)F are 35.6 ± 1.7, 30.6 ± 1.4 and 28.8 ± 1.3.
The matching figures for `CC1CCCCC1` [methylcyclohexane] + CCCC[n+]1ccc(C)cc1.F[B-](F)(F)F: 41.5 ± 1.9, 34.8 ± 1.6 and 33.1 ± 1.5.
As to `CCCCCCCCCC` [decane] + CCCC[N+]1(C)CCCC1.O=S(=O)([N-]S(=O)(=O)C(F)(F)F)C(F)(F)F, the activity coefficient (313.1 K) stood at 50.1 ± 2.3, the activity coefficient (333.1 K) came to 45.3 ± 2.1 and the activity coefficient (353.1 K) was determined as 40.6 ± 1.9.
Take `CCCCCCCCC` [nonane] + CCCC[n+]1ccc(C)cc1.F[B-](F)(F)F: the activity coefficient was 182 ± 8.6 (313.1 K), 153 ± 7.2 (333.1 K) and 131 ± 6.2 (353.1 K).
In the same order, the values of `CCCCCCCC` [octane] + CCCC[n+]1ccc(C)cc1.F[B-](F)(F)F are 130 ± 6.1, 107 ± 5 and 99.8 ± 4.7.
As for `CCCCCC` [hexane] + CCCCn1cc[n+](C)c1.F[B-](F)(F)F, the activity coefficient (313.1 K) was 56.7 ± 2.6, the activity coefficient (333.1 K) is 47.8 ± 2.2 and the activity coefficient (353.1 K) came out at 45.2 ± 2.1.
In the case of `CC1CCCC1` [methylcyclopentane] + CCCC[n+]1ccc(C)cc1.F[B-](F)(F)F, the activity coefficient by setting is: (313.1 K) 31.3 ± 1.4; (333.1 K) 26.4 ± 1.2; (353.1 K) 25.8 ± 1.2.
